Reference: US6362212B1, “Oxime derivative and bactericide containing the same as active ingredient” (Shionogi & Company, Ltd., priority 1994, dated 2002)

Legend:
Sphaerotheca fuliginea = assay: Controlling effect on Sphaerotheca fuliginea by foliage application (pot experiment); assay type: in vivo; conditions: foliage spray on cucumber (cv. TSUKUBASHIROIBO) first leaves, infected area after 10 days in greenhouse at 20° C.; for pest or weed control at 500 ppm: Podosphaera fuliginea, in Cucumis sativus, foliar, 240 h, read-out: Controlling effect on Sphaerotheca fuliginea by foliage application at 500 ppm (percent control)
Procedure, shortened: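 First leaves of cucumber seedlings, 2-3 weeks old, were sprayed with compound (DMF solution diluted in water with spreader). They were inoculated 24 h later with a Sphaerotheca fuliginea conidia spray and kept 10 days at 20° C in a greenhouse. Percent control was calculated from infected leaf area.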

[1] = test system: Erysiphe graminis f. sp. tritici; assay: Controlling effect on Erysiphe graminis f. sp. tritici by foliage application (pot experiment); assay type: in vivo; conditions: foliage spray on wheat (cv. NORIN No. 61) seedlings, infected area after 10 days in greenhouse at 20° C.; for pest or weed control at 500 ppm: Blumeria graminis, foliar, 240 h, read-out: Controlling effect on ErYsiphe graminis f. sp. tritici by foliage application at 500 ppm (percent control)
Procedure, shortened: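 Wheat seedlings (cv. NORIN No. 61, 2-3 weeks old) sprayed with compound in DMF diluted in water with spreader, then inoculated with conidia 24 hours later. Kept in greenhouse at 20 °C for 10 days; percent control calculated from infected leaf area.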

Pyricularia oryzae = assay type: in vivo; conditions: foliage spray on rice seedlings (cv. […]), number of lesions six days after the inoculation
Puccinia coronata = assay: Controlling effect on Puccinia coronata by foliage application (pot experiment); assay type: in vivo; conditions: foliage spray on oat (cv. PC-38) seedlings, infected area after 1 day moist chamber and 8 days greenhouse at 20° C.
Procedure, shortened: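 Oat seedlings (cv. PC-38, 2–3 weeks old) were sprayed with compound in DMF diluted with spreader-containing water, then inoculated 24 h later with P. coronata spores diluted in talc. Plants were held 1 day in a moist chamber at 20° C, then 8 days in a greenhouse at 20° C; percent control came from infected leaf area.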

Botrytis cinerea = assay: Controlling effect on Botrytis cinerea by foliage application (pot experiment); assay type: in vivo; conditions: foliage spray on cucumber (cv. TSUKUBASHIROIBO) first leaves, mycelial disks, lesion diameter after 3 days in moist chamber at 20° C.
Procedure: The following Test Examples illustrate the effects of the fungicide of the present invention. (I. Controlling effects on various plant diseases by foliage application (pot experiment)) A test compound was dissolved in a small amount of N,N-dimethylformamide, and the solution was diluted to a given concentration with distilled water containing a spreader. Thus, a liquid sample to be tested was prepared. The liquid sample was sprayed to test plants, and 24 hours thereafter, pathogens were inoculated by the method described below. […] The seeds of cucumber ([…]) were sown in plastic cups (each 9 cm in diameter), followed by cultivation for 2 to 3 weeks. The test compound in the form of a solution or suspension was sprayed to the surface of their first leaves, and mycelial disks (4 mm φ) of Botrytis cinerea cultured on the potato sucrose agar medium were put on the leaf surfaces to inoculate. the cucumber seedlings with the pathogen. The plants were kept in a moist chamber at 20° C. for 3 days. The diameter of the lesions on the leaves was measured and the percent control was calculated.

[2] = test system: Pseudoperonospora cubensis; assay: Controlling effect on Pseudoperonospora cubensis by foliage application (pot experiment); assay type: in vivo; conditions: foliage spray on cucumber (var. TSUKUBASHIROIBO) first leaves, lesion area after 10 days in moist chamber at 20° C.
Procedure, shortened: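 Cucumber plants grown 2–3 weeks were sprayed on first leaves with compound (DMF solution diluted in water with spreader); 24 h later, Pseudoperonospora cubensis zoosporangia suspension dropped on leaves. Plants held in moist chamber at 20° C for 10 days; lesion area observed and percent control calculated.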

| SMILES | pest or weed control at 500 ppm (Sphaerotheca fuliginea) | pest or weed control at 500 ppm [1] | Controlling effect on PYricularia orYzae by foliage application at 500 ppm (percent control) (Pyricularia oryzae) | melting point | Controllng effect on Puccinia coronata by foliage application at 500 ppm (percent control) (Puccinia coronata) | Controlling effect on Botrytis cinerea by foliage application at 500 ppm (percent control) (Botrytis cinerea) | Controlling effect on Sphaerotheca fuliginea by foliage application at 500 ppm (percent control) (Sphaerotheca fuliginea) | Controlling effect on ErYsiphe graminis f. sp. tritici by foliage application at 500 ppm (percent control) [1] | Controlling effect on Pseudoperonospora cubensis by foliage application at 500 ppm (percent control) [2] |
| --- | --- | --- | --- | --- | --- | --- | --- | --- | --- |
| CON=C(c1ccon1)c1ccccc1COc1cc(C)ccc1C (single isomer, unassigned) [Compound No. 336, 2-(2,5-dimethylphenoxymethyl)phenyl isoxazol-3-yl ketone O-methyloxime] | 100% | 97% | 90 percent control | 104 to 108 °C | 100 percent control | – | – | – | – |
| CON=C(c1ccccc1COc1cccc(Cl)c1)n1ccnc1 [Compound No. 6, 1-[2-(3-chlorophenoxymethyl)-α-methoxyiminobenzyl]imidazole] | – | 100% | 90 percent control | 96.5 to 97.5 °C | 100 percent control | 100 percent control | – | – | – |
| CON=C(c1ccccc1COc1ccccc1C)n1ccnc1 [Compound No. 13] | – | – | 90 percent control | – | 97 percent control | 70 percent control | 100 percent control | 90 percent control | – |
| CON=C(c1ccccc1COc1ccc(C)cc1)n1ccnc1 [Compound No. 15] | – | – | 90 percent control | – | 100 percent control | 100 percent control | 100 percent control | 97 percent control | – |
| CON=C(c1cc(C)no1)c1ccccc1COc1ncc(C(F)(F)F)cc1Cl [Compound No. 690, 2-(3-chloro-5-trifluoromethyl-2-pyridyloxymethyl)phenyl 3-methylisoxazol-5-yl ketone O-methyloxime] | – | – | – | 77 to 79 °C | – | – | – | – | – |
| CON=C(c1nnco1)c1ccccc1COc1cc(C)ccc1C [Compound No. 736, 2-(2,5-dimethylphenoxymethyl)phenyl 1,3,4-oxadiazol-2-yl ketone O-methyloxime] | 100% | 100% | – | 134 to 135 °C | 100 percent control | – | – | – | – |
| CON=C(c1ncon1)c1ccccc1COc1ccc(Cl)cc1 [Compound No. 807, 2-(4-chlorophenoxymethyl)phenyl 1,2,4-oxadiazol-3-yl ketone O-methyloxime] | 100% | – | – | 107 to 108 °C | – | – | – | – | – |
| CON=C(c1ncno1)c1ccccc1COc1ccc(Cl)cc1 [Compound No. 1584, 2-(4-chlorophenoxymethyl)phenyl 1,2,4-oxadiazol-5-yl ketone O-methyloxime] | 100% | 100% | 70 percent control | 96 to 97.5 °C | 70 percent control | – | – | – | – |
| CON=C(c1nnn(C)n1)c1ccccc1COc1cc(C)ccc1C [Compound No. 2036, 2-(2,5-dimethylphenoxymethyl)phenyl 2-methyl-2H-tetrazol-5-yl ketone O-methyloxime] | 100% | 90% | – | 131 to 132 °C | – | – | – | – | – |
| CON=C(c1ccccc1COc1c(C)cccc1C)n1ccnc1 [compound 40] | – | – | 90 percent control | – | 70 percent control | 70 percent control | 100 percent control | 97 percent control | – |
| CON=C(c1ccccc1COc1ccccc1)n1cncc1C [compound 201] | – | – | 90 percent control | – | 90 percent control | 70 percent control | 100 percent control | 90 percent control | – |
| CON=C(c1ccccc1COc1cccc(Cl)c1)n1cncc1C [compound 206] | – | – | 90 percent control | – | 97 percent control | 97 percent control | 100 percent control | 90 percent control | – |
| CON=C(c1ccccc1COc1ccc(Cl)cc1)n1cncc1C [compound 207] | – | – | 90 percent control | – | 97 percent control | 100 percent control | 100 percent control | 100 percent control | – |
| CCON=C(c1ccccc1COc1ccccc1)n1cncc1C [compound 215] | – | – | 70 percent control | – | 90 percent control | 97 percent control | 100 percent control | 90 percent control | – |
| CON=C(c1cc(C)no1)c1ccccc1CON=C(C)c1ccc(Cl)c(Cl)c1 [compound 2528, 2-(3,4-dichloro-α-methylbenzylideneaminooxymethyl)phenyl 3-methylisoxazol-5-yl ketone O-methyloxime] | 100% | – | – | 84 to 85 °C | – | – | – | – | 100 percent control |
